Patent US12428395B2, “Heterocyclic compounds as kinase inhibitor and uses thereof” (SPEROGENIX THERAPEUTICS LIMITED, priority 2019, dated 2025)

What was measured:
[1] = test system: MiaPaCa-2; assay: Cell viability assay (resazurin), MiaPaCa-2; type: cell-based; details: Homo sapiens, MIA PaCa-2; MiaPaCa-2 pancreatic cancer cells
Procedure: (§1) Protocol for Cell Viability Assay in Different Cell Lines for CHK-1 Inhibitors:
(§2) Cells were allowed to grow at 37° C. for 24 hr (adherent cells) in 5% CO2 (culture conditions) in a Nuaire incubator (humidified). Following 24 hr (adherent cells), serially diluted compounds (100 μl) were added to the culture plate (immediately after plating in case of suspension cells) and the cultures were further incubated in culture conditions for 72-144 hr depending on the cell type. Experiment was terminated at the completion of respective incubation with drug by replacing the medium with 100 μl of 1 mM of resazurin (R7017; Sigma) prepared in culture medium and the plates were further incubated in culture conditions for 4 hr. In case of 144 hr incubation with the drug, the drug was replenished once with fresh medium after 72 hr. Fluorescence was then measured using a multimodal plate reader (Biotek Synergy Neo) at an excitation wavelength of 535 nm and emission wavelength of 590 nm to obtain relative fluorescence units. Data analysis was done by subtracting the background fluorescence (only medium blank) value from each reading and then normalizing with the vehicle control (DMSO treated cells) to obtain percent survival/proliferation. Percent survival at different doses was used to calculate IC50 by fitting the curve to the “four-parameter variable slope logistic model” using Prism Graph Pad.

[2] = test system: AsPC-1; assay: Cell viability assay (resazurin), AsPC-1; type: cell-based; details: Homo sapiens, ASPC1; AsPC-1 pancreatic cancer cells
Procedure: as §1, §2

[3] = target: CHK-1 kinase (Homo sapiens (Human), UniProt O14757); assay: CHK-1 Kinase Assay (Z-LYTE based TR-FRET); type: biochemical; details: for inhibition at 0.1 µM: 0.1 μM compound, read-out: % Inhibition of CHK-1 enzyme activity @ 0.1 μM; for inhibition at 1 µM: 1 μM compound, read-out: % Inhibition of CHK-1 enzyme activity @ 1 μM; for inhibition at 5 µM: 5 μM compound, read-out: % Inhibition of CHK-1 enzyme activity @ 5 μM
Procedure: IC50 values of compounds for inhibition of CHK-1 kinase or percent inhibition at defined concentrations were determined by Z-LYTE™ based TR-FRET assay. Kinase reactions were performed in a 10 μL volume in low-volume 384-well plates. The concentration of substrate (Ser Thr 19) was maintained at 2 μM in the assay, and the kinase reaction buffer consisted of 50 mM HEPES pH 7.5, 0.01% BRIJ-35, 10 mM MgCl2, 1 mM EGTA, 2 mM DTT. Serially diluted compounds (3-fold) in DMSO (0.5% in final reaction) were incubated with cocktail of CHK-1 kinase (5 ng/ml; Cat #P3040, ThermoFisher), substrate Ser Thr 19, (2 μM; Cat #PV4529, ThermoFisher), ATP (53 μM; Cat #PV3227, ThermoFisher) and buffer. Kinase reactions were allowed to proceed for 1 hour at room temperature after which 5 μL of a 1:256 dilution of Development Reagent A was added. The plate was allowed to incubate at room temperature for 60 minutes before being read on a BMG Pherastar plate reader using the Z-LYTE™ filter block for Z-LYTE™ TR-FRET. The resulting TR-FRET emission ratio was used to calculate percent inhibition by normalizing with the control using the following formula: — [% Inhibition=1−{(% Phosphorylationsample/% Phosphorylationcontrol (0% Inhibition)}·100] For calculation of IC50, the percent inhibition obtained was plotted against the concentration of inhibitor, and the data was fit to a sigmoidal dose-response curve with a variable slope. The IC50 was calculated from the curve.

[4] = test system: THP1; assay: Cell viability assay (resazurin), THP1; type: cell-based; details: Homo sapiens, THP-1; THP1 peripheral blood cells
Procedure: as §1, §2

[5] = test system: A549; assay: Cell viability assay (resazurin), A549; type: cell-based; details: Homo sapiens; A549 lung epithelial carcinoma cells
Procedure: as §1, §2

[6] = test system: HCT116; assay: Cell viability assay (resazurin), HCT116; type: cell-based; details: Homo sapiens, HCT-116; HCT116 colorectal carcinoma cells
Procedure: as §1, §2

[7] = test system: MDA_MB-231; assay: Cell viability assay (resazurin), MDA_MB-231; type: cell-based; details: Homo sapiens, MDA-MB-231; MDA_MB-231 TNBC cells
Procedure: as §1, §2

[8] = test system: MV-4-11; assay: Cell viability assay (resazurin), MV-4-11; type: cell-based; details: Homo sapiens, MV4-11; MV-4-11 peripheral blood cells
Procedure: as §1, §2

[9] = test system: HT-29; assay: Cell viability assay (resazurin), HT-29; type: cell-based; details: Homo sapiens; HT-29 colon cancer cells
Procedure: as §1, §2

Sequence of CHK-1 kinase (O14757 whole entry): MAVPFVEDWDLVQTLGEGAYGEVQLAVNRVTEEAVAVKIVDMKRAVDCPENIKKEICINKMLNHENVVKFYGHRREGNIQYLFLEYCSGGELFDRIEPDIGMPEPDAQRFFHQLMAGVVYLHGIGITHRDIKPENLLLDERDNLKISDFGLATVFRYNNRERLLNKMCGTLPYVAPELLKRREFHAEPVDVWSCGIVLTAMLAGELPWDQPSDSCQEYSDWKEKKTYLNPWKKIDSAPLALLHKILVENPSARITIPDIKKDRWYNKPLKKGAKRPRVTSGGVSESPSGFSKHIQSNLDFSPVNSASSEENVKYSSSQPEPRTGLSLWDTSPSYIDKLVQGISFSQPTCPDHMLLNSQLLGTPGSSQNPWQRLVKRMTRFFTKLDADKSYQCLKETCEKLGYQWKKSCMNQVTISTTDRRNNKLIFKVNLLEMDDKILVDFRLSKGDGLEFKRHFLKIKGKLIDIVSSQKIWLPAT

Row | IC50 [1] | IC50 [2] | inhibition at 0.1 µM [3] | inhibition at 1 µM [3] | inhibition at 5 µM [3] | IC50 [4] | IC50 [5] | IC50 [6] | IC50 [8] | IC50 [9] | Compound | IC50 [7]
1 | 23.5 µM | 11.9 µM | 61% | 93% | 100% | 21.8 µM | – | – | – | – | CN1CCC(Nc2cc(Nc3cnc(C#N)cn3)nnc2C(N)=O)CC1 [1.20, 6-(5-cyanopyrazin-2-ylamino)-4-(1-methylpiperidin-4-ylamino)pyridazine-3-carboxamide] | –
2 | 13.4 µM | 6.41 µM | 91% | 100% | 100% | 4.24 µM | 11.4 µM | 17.2 µM | 5.4 µM | 14.9 µM | CNC(=O)c1nnc(Nc2cnc(C#N)cn2)cc1NCC1CNCCO1 (stereo not shown) [1.11, 6-(5-cyanopyrazin-2-ylamino)-N-methyl-4-(morpholin-2-ylmethylamino)pyridazine-3-carboxamide] | 13 µM
3 | 23.2 µM | 12.9 µM | 63% | 96% | 98% | 11.7 µM | – | – | – | > 30 µM | N#Cc1cnc(Nc2cc(NCC3CNCCO3)c(C(=O)NC3CC3)nn2)cn1 (stereo not shown) [1.12, 6-(5-cyanopyrazin-2-ylamino)-N-cyclopropyl-4-(morpholin-2-ylmethylamino)pyridazine-3-carboxamide] | –
4 | 10.2 µM | 11.6 µM | 86% | 100% | 100% | 6.23 µM | > 30 µM | 17.2 µM | 5.38 µM | 14.5 µM | CNC(=O)c1nnc(Nc2cnc(C#N)cn2)cc1NC[C@H]1CNCCO1 (stereo in doubt) [1.35, 6-(5-cyanopyrazin-2-ylamino)-N-methyl-4-(morpholin-2-ylmethylamino)pyridazine-3-carboxamide] | 15.5 µM
5 | – | – | – | 15% | 32% | – | – | > 30 µM | – | – | N#Cc1cnc(Nc2cc(NCC3CCNCC3)c(-c3ccccc3)nn2)cn1 [1.1, 5-((6-phenyl-5-((piperidin-4-ylmethyl)amino)pyridazin-3-yl)amino)pyrazine-2-carbonitrile] | –
6 | > 30 µM | – | – | – | – | > 30 µM | – | – | – | > 30 µM | N#Cc1cnc(Nc2cc(NCC3CNCCO3)c(C(F)(F)F)nn2)cn1 (stereo not shown) [1.7, 2-((6-(5-cyanopyrazin-2-ylamino)-3-(trifluoromethyl)pyridazin-4-ylamino)methyl)morpholin-4-ium 2,2,2-trifluoroacetate] | –
7 | 26.2 µM | 8.45 µM | 49% | 90% | 99% | 13.1 µM | – | – | – | – | CNC(=O)c1nnc(Nc2cnc(C#N)cn2)cc1NCC1CCN(C)CC1 [1.19, 6-(5-cyanopyrazin-2-ylamino)-N-methyl-4-((1-methylpiperidin-4-yl)methylamino)pyridazine-3-carboxamide] | –
8 | 10.8 µM | 13.2 µM | 77% | 96% | 99% | 9.79 µM | > 30 µM | 27.9 µM | 7 µM | 16.9 µM | CNC(=O)c1nnc(Nc2cnc(C#N)cn2)cc1NC[C@@H]1CNCCO1 (stereo in doubt) [1.34, 6-(5-cyanopyrazin-2-ylamino)-N-methyl-4-(morpholin-2-ylmethylamino)pyridazine-3-carboxamide] | 12.4 µM
